Holding throughout (assay type): cell-based
For assay [1], the target named is T1, human CCR6 (Homo sapiens, UniProt P51684).
T1 sequence (P51684 1-374): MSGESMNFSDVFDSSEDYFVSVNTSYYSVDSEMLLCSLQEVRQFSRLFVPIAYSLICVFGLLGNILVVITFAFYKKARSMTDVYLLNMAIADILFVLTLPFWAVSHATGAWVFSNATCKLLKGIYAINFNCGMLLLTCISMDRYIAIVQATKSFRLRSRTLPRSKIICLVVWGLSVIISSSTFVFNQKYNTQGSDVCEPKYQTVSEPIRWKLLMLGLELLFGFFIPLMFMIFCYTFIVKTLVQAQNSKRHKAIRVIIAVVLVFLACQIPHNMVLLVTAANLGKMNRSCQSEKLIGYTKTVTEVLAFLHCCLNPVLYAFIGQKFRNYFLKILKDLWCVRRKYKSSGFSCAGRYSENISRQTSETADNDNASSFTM
The experiment in a line: Human CCR6-CRE reporter assay. Conditions: 293FT cells transfected with human CCR6 and CRE-luciferase; Forskolin + CCL20, 5 h; relative Log IC50; read-out: CCR6-CRE reporter (converted). Also on record: The second construct contained the open reading frame of human CCR6 in the pUNO1 backbone; host or cells: 293FT cells (transient transfection with TransIT-293). The protocol: 293FT cells were transfected with 2 constructs using TransIT-293 (Mirus). The first construct (pGL4.29, Promega) expressed the luciferase reporter gene luc2P in response to the binding of cAMP-induced CREB to the CREelement in its promoter. The second construct contained the open reading frame of human CCR6 in the pUNO1 backbone under the control of an enhanced CMV promoter(InVivoGen).48 h after transfection, cells were harvested and diluted to 750,000 cells/ml in culture medium (DMEM, 10% FBS, 1× pen/strep(Gibco 15140)). Compounds were 2.5-fold serially diluted in DMSO. Further dilutions were made in assay medium (DMEM, 10% FBS, 1× pen/strep, 6 μM Forskolin, 6 nM CCL20). 4 μl of the compound solution was added to a white MW384 plate, followed by […] of the cell suspension. Final DMSO concentration in the assay was 0.1%. The MW384 plate was placed in an incubator at 37° C., 5% CO2 for 5 h. Luciferase activity was determined by addition of 24 μl of a 2.5× diluted BriteLite luciferase solution(Perkin Elmer), followed by luminescence measurement using a VICTOR Plate reader (Perkin Elmer). […] The relative Log IC50 was determined with GraphPad Prism 9 using a four-parameter dose-response model.

A further assay deals with Human CD4+ T cells. The experiment in a line: CD4+ T cells chemotaxis assay towards CCL20. Conditions: CD4+ T cell, 3 h. An excerpt: Human CD4+ T cells were isolated from buffy coats of healthy donors using aCD4+ T Cell Isolation Kit(Miltenyi Biotec 130-096-533). Isolated T cells were stimulated overnight with anti-CD3 and anti-CD28 antibodies (Biolegend 300314/302934) in growth medium (RPMI1640, 10% heat-inactivated FBS, 1× pen/strep (Gibco 15140)). For the chemotaxis assay, Corning Transwell plates were used with a pore size of 5 m (Corning 3388). T cells were counted and diluted to 6*10^6 cells/ml in chemotaxis medium (RPMI1640, 1% BSA, pen/strep). Compounds were four-fold serially diluted in DMSO. Further dilutions were made in chemotaxis medium. Cells were incubated with test compounds for 30 min at 37° C. prior to initiation of the assay (3*10^6 cells/ml). Final DMSO concentration in the assay was 0.2%. Wells of the Transwell plates were filled with 200 μl chemotaxis medium containing 150 ng/ml CCL20 (R&D systems 360-MP). 50 μl of the cell/compound suspension was added to the inserts of the Transwell plates (150,000 cells/insert). The Transwell plates were placed in an incubator at 37° C., 5% CO2 for 3 h. After 3 h, the number of migrated cells was quantified using CellTiter Glo (Promega). Percentage inhibition values were calculated based on the low and high signal obtained with 0.2% DMSO in chemotaxis medium without and with CCL20, respectively. The relative Log IC50 was determined with GraphPad Prism 9 using a four-parameter dose-response model.

Assay [2] deals with T1, human CCR6. The experiment in a line: CHO-K1 CCR6 chemotaxis assay towards CCL20. Conditions: CHO-K1 cells overexpressing human CCR6; 100 ng/ml CCL20, 4 h; relative Log IC50. An excerpt: Cells overexpressing human CCR6 were used in the chemotaxis assay (DiscoverX, cAMP Hunter™ CHO-K1 CCR6 Gi Cell Line). Growth medium of these cells consisted of DMEM/F12, non-essential Amino acids (1×NEAA, Gibco 11140050), 10% FBS and 1× pen/strep (Gibco 15140). For the chemotaxis assay, Corning Transwell plates were used with a pore size of 8 m (Corning 351164). Cells were harvested using trypsin and diluted to 4*10^6 cells/ml in chemotaxis medium (DMEM, 0.25% BSA, pen/strep). Compounds were four-fold serially diluted in DMSO. Further dilutions were made in chemotaxis medium. Cells were incubated with test compounds for 30 min at 37° C. prior to initiation of the assay (2*10^6 cells/ml). Final DMSO concentration in the assay was 0.2%. Wells of the Transwell plates were filled with 200 μl chemotaxis medium containing 100 ng/ml CCL20 (R&D systems 360-MP). 50 μl of the cell/compound suspension was added to the inserts of the Transwell plates (100,000 cells/insert). The Transwell plates were placed in an incubator at 37° C., 5% CO2 for 4 h. After 4 h, the number of migrated cells was quantified using CellTiter Glo (Promega). Percentage inhibition values were calculated based on the low and high signal obtained with 0.2% DMSO in chemotaxis medium without and with CCL20, respectively. The relative Log IC50 was determined with GraphPad Prism 9 using a four-parameter dose-response model.

Molecules are shown by their SMILES.

On to `Cc1n[nH]c2ccc(-c3ccc(S(=O)(=O)N4CCC(Nc5ccc(OC(F)(F)F)cc5)CC4)cc3)cc12` [Example 6, 1-[4-(3-methyl-1H-indazol-5-yl)benzenesulfonyl]-N-[4-(trifluoromethoxy)phenyl]piperidin-4-amine], for which the IC50 on human CCR6 [1] is 0.126 µM; in the assay with Human CD4+ T cells, 0.0501 µM.

As for `CNC(=O)c1cccc(-c2ccc(S(=O)(=O)N3CCC(Nc4ccc(OC(F)(F)F)cc4)CC3)cc2)c1` [Example 4, N-methyl-4′-[(4-{[4-(trifluoromethoxy)phenyl]Amino}piperidin-1-yl)sulfonyl]-[1,1′-biphenyl]-3-carboxamide], the IC50 at human CCR6 [1] was 0.1 µM; with Human CD4+ T cells, 0.02 µM.

Regarding `CC(C)c1nnc2ccc(-c3ccc(S(=O)(=O)N4CCC(Nc5ccc(SC(F)(F)F)cn5)CC4)cc3)cn12` [Example 65, N-(1-{4-[3-(propan-2-yl)-[1,2,4]triazolo[4,3-a]pyridin-6-yl]benzenesulfonyl}piperidin-4-yl)-5-[(trifluoromethyl)sulfanyl]pyridin-2-amine], the IC50 on human CCR6 [1] is 0.0251 µM; in the assay on Human CD4+ T cells, 0.00501 µM.

In the case of `N#Cc1ccc(-c2ccc(S(=O)(=O)N3CCC(Nc4ccc(OC(F)(F)F)cc4)CC3)cc2)cc1` [Example 1, 4′-[(4-{[4-(trifluoromethoxy)phenyl]Amino}piperidin-1-yl)sulfonyl]-[1,1′-biphenyl]-4-carbonitrile], the values for the IC50 on human CCR6 [1] and in the assay on Human CD4+ T cells were 0.0398 µM and 0.0501 µM, respectively.

In the case of `CC(C)c1nnc2cnc(-c3ccc(S(=O)(=O)N4CCC(Nc5ccc(OC(F)(F)F)cn5)CC4)cc3)cn12` [Example 59, N-(1-{4-[3-(propan-2-yl)-[1,2,4]triazolo[4,3-a]pyrazin-6-yl]benzenesulfonyl}piperidin-4-yl)-5-(trifluoromethoxy)pyridin-2-amine], the IC50 against human CCR6 [2] is 0.00794 µM; on human CCR6 [1], 0.0631 µM.

Turning to `CC(C)c1cnc2ccc(-c3ccc(S(=N)(=O)[C@H]4CC[C@H](Nc5ccc(SC(F)(F)F)cc5)CC4)cc3)cn12` (stereo partly drawn) [Example 51, {4-[3-(propan-2-yl)imidazo[1,2-a]pyridin-6-yl]phenyl}[trans-4-({4-[(trifluoromethyl)sulfanyl]phenyl}Amino)cyclohexyl](imino)-λ^6-sulfanone], the values for the IC50 against human CCR6 [2] and at human CCR6 [1] were 0.794 µM and 0.0794 µM, respectively.

Turning to `N#Cc1c[nH]c2ccc(-c3ccc(S(=O)(=O)N4CCC(Nc5ccc(OC(F)(F)F)cc5)CC4)cc3)cc12` [Example 13, 5-{4-[(4-{[4-(trifluoromethoxy)phenyl]Amino}piperidin-1-yl)sulfonyl]phenyl}-1H-indole-3-carbonitrile], the results for the IC50 on human CCR6 [1] and in the assay on Human CD4+ T cells were 0.0794 µM and 0.01 µM, respectively.

Consider `CC(C)c1nnc2cnc(-c3ccc(S(=O)(=O)N4CCC(Nc5ccc(SC(F)(F)F)cn5)CC4)cc3)cn12` [Example 66, N-(1-{4-[3-(propan-2-yl)-[1,2,4]triazolo[4,3-a]pyrazin-6-yl]benzenesulfonyl}piperidin-4-yl)-5-[(trifluoromethyl)sulfanyl]pyridin-2-amine], for which the IC50 on human CCR6 [1] is 0.0316 µM; with Human CD4+ T cells, 0.00158 µM.

In the case of `Cc1nnc2ccc(-c3ccc(S(=O)(=O)N4CCC(Nc5ccc(SC(F)(F)F)cn5)CC4)cc3)cn12` [Example 67, N-[1-(4-{3-methyl-[1,2,4]triazolo[4,3-a]pyridin-6-yl}benzenesulfonyl)piperidin-4-yl]-5-[(trifluoromethyl)sulfanyl]pyridin-2-amine], the IC50 at human CCR6 [1] is 0.0398 µM; in the assay on Human CD4+ T cells it was 0.0126 µM.

In the case of `N#Cc1c[nH]c2ccc(-c3ccc(S(=O)(=O)[C@H]4CC[C@H](Nc5ccc(SC(F)(F)F)cc5)CC4)cc3)cc12` [Example 44, 5-(4-{[trans-4-({4-[(trifluoromethyl)sulfanyl]phenyl}Amino)cyclohexyl]sulfonyl}phenyl)-1H-indole-3-carbonitrile], the results for the IC50 on human CCR6 [2] and at human CCR6 [1] were 0.00631 µM and 0.02 µM, respectively.

For the molecule `Cc1cc(-c2ccc(S(=O)(=O)N3CCC(Nc4ccc(SC(F)(F)F)cn4)CC3)cc2)cn2c(C(C)C)nnc12` [Example 68, N-(1-{4-[8-methyl-3-(propan-2-yl)-[1,2,4]triazolo[4,3-a]pyridin-6-yl]benzenesulfonyl}piperidin-4-yl)-5-[(trifluoromethyl)sulfanyl]pyridin-2-amine], the IC50 at human CCR6 [1] is 0.0631 µM; with Human CD4+ T cells, 0.002 µM.

On to `Cc1cc(-c2ccc(S(=O)(=O)N3CCC(Nc4ccc(OC(F)(F)F)cn4)CC3)cc2)cn2c(C(C)C)nnc12` [Example 57, N-(1-{4-[8-methyl-3-(propan-2-yl)-[1,2,4]triazolo[4,3-a]pyridin-6-yl]benzenesulfonyl}piperidin-4-yl)-5-(trifluoromethoxy)pyridin-2-amine], for which the IC50 at human CCR6 [2] was 0.00794 µM; on human CCR6 [1], 0.0398 µM.

`Cc1n[nH]c2ncc(-c3ccc(S(=O)(=O)[C@H]4CC[C@H](Nc5ccc(SC(F)(F)F)cc5)CC4)cc3)cc12` [Example 72, N-[trans-4-(4-{3-methyl-1H-pyrazolo[3,4-b]pyridin-5-yl}benzenesulfonyl)cyclohexyl]-4-[(trifluoromethyl)sulfanyl]aniline]: the IC50 is 0.0398 µM at human CCR6 [1] and 0.00398 µM in the assay on Human CD4+ T cells.

As for `O=S(=O)(c1ccc(-c2ccc3nccn3c2)cc1)[C@H]1CC[C@H](Nc2ccc(OC(F)(F)F)cc2)CC1` [Example 43, N-[trans-4-(4-{imidazo[1,2-a]pyridin-6-yl}benzenesulfonyl)cyclohexyl]-4-(trifluoromethoxy)aniline], the IC50 on human CCR6 [2] and on human CCR6 [1] was 0.0794 µM each time.

Consider `Cc1cnc2ccc(-c3ccc(S(=O)(=O)[C@H]4CC[C@H](Nc5ccc(OC(F)(F)F)cn5)CC4)cc3)cn12` [Example 42, N-[trans-4-(4-{3-methylimidazo[1,2-a]pyridin-6-yl}benzenesulfonyl)cyclohexyl]-5-(trifluoromethoxy)pyridin-2-amine], for which the figures for the IC50 against human CCR6 [2] and at human CCR6 [1] were 0.0794 µM and 0.158 µM, respectively.

In the case of `Cc1cc(-c2ccc(S(=O)(=O)N3CCC(Nc4ccc(OC(F)(F)F)cn4)CC3)cc2)cn2c(C(C)C)cnc12` [Example 55, N-(1-{4-[8-methyl-3-(propan-2-yl)imidazo[1,2-a]pyridin-6-yl]benzenesulfonyl}piperidin-4-yl)-5-(trifluoromethoxy)pyridin-2-amine], the results for the IC50 on human CCR6 [2] and on human CCR6 [1] were 0.002 µM and 0.0794 µM, respectively.

The record behind these values is US20250353859A1, “COMPOUNDS AS CCR6 INHIBITORS” (Hoffmann-La Roche Inc., priority 2023, published 2025).
